From ChEMBL document CHEMBL5131463, “Target-Based Virtual Screening and LC/MS-Guided Isolation Procedure for Identifying Phloroglucinol-Terpenoid Inhibitors of SARS-CoV-2” (J Nat Prod, 2022)

What was measured:
[1] = Cytotoxicity against African green monkey Vero E6 cells by CCK-8 assay; type: toxicity, cell-based, Vero C1008; settings: chlorocebus sabaeus
[2] = Selectivity index, ratio for CC50 of African green monkey Vero E6 cells to EC50 for SARS-Cov-2 infected in african monkey Vero E6 cells; type: toxicity, Vero C1008; settings: read-out: Selectivity Index
[3] = Selectivity index, ratio of CC50 for African green monkey Vero cells in presence of wallichins D to EC50 for SARS-Cov-2 infected in african green monkey Vero E6 cells assessed as inhibition of viral replication in presence of wallichins D; type: toxicity, Vero C1008; settings: read-out: Selectivity Index
[4] = target: T1, Replicase polyprotein 1ab (Severe acute respiratory syndrome coronavirus 2, UniProt P0DTD1); test: Inhibition of SARS-CoV-2 3CL protease using MCA-AVLQSGFR-Lys(Dnp)-Lys-NH2 as flurogenic substrate pre-incubated with compound for 10 mins followed by substrate addition measured after 10 mins by FRET assay
SARS-CoV-2 [5] = test: (§1) Antiviral activity against SARS-Cov-2 infected in african green monkey Vero E6 cells assessed as inhibition of viral replication pretreated with compound for 1 hr followed by viral infection for 2 hrs measured after 24 hrs post infection in presence of wallichins D by qRt-PCR analysis; type: functional, organism-based; settings: Severe acute respiratory syndrome coronavirus 2, Vero C1008
SARS-CoV-2 [6] = test: as §1, with “replication at 10 uM” for “replication”, “analysis relative to control” for “analysis”; type: functional; settings: Severe acute respiratory syndrome coronavirus 2, Vero C1008, time 27 hrs
[7] = Cytotoxicity against African green monkey Vero E6 cells in presence of wallichins D by CCK-8 assay; type: toxicity, cell-based, Vero C1008; settings: chlorocebus sabaeus
[8] = Cytotoxicity against human Calu-3 cells in presence of wallichins D by CCK-8 assay; type: toxicity, cell-based
Spike glycoprotein [9] = target: T2, Spike glycoprotein (Severe acute respiratory syndrome coronavirus 2, UniProt P0DTC2); test: Binding affinity to SARS-CoV-2 Spike glycoprotein receptor-binding domain at 1.875 to 50 uM in presence of wallichins D by SPR assay
SARS-CoV-2 [10] = test: Antiviral activity against SARS-Cov-2 infected in human Calu-3 cells assessed as inhibition of viral replication pretreated with compound for 1 hr followed by viral infection for 2 hrs measured after 24 hrs post infection by qRt-PCR analysis; type: functional, organism-based; settings: Severe acute respiratory syndrome coronavirus 2, Calu-3
[11] = Cytotoxicity against human Calu-3 cells by CCK-8 assay; type: toxicity, cell-based
Spike glycoprotein [12] = target: T2, Spike glycoprotein; test: Binding affinity to SARS-CoV-2 Spike glycoprotein receptor-binding domain at 1.875 to 50 uM by SPR assay
[13] = target: T1, Replicase polyprotein 1ab; test: Binding affinity to SARS-CoV-2 3CL protease at 1.875 to 50 uM by SPR assay
[14] = target: T1, Replicase polyprotein 1ab; test: Inhibition of SARS-CoV-2 3CL protease using MCA-AVLQSGFR-Lys(Dnp)-Lys-NH2 as flurogenic substrate pre-incubated with compound for 10 mins followed by substrate addition measured after 10 mins in presence of wallichins D by FRET assay
SARS-CoV-2 [15] = test: Antiviral activity against SARS CoV-2 VSV-delG pseudotype infected in african green monkey Vero E6 at 100 uM measured after 15 hrs post infection relative to control; type: functional; settings: Severe acute respiratory syndrome coronavirus 2, Vero C1008
[16] = target: T1, Replicase polyprotein 1ab; test: Binding affinity to SARS-CoV-2 3CL protease at 1.875 to 50 uM in presence of wallichins D by SPR assay
SARS-CoV-2 [17] = test: Antiviral activity against SARS-Cov-2 infected in african green monkey Vero E6 cells assessed as inhibition of viral replication pretreated with compound for 1 hr followed by viral infection for 2 hrs measured after 24 hrs post infection by qRt-PCR analysis; type: functional, organism-based; settings: Severe acute respiratory syndrome coronavirus 2, Vero C1008
SARS-CoV-2 [18] = test: Antiviral activity against SARS-Cov-2 infected in human Calu-3 cells assessed as inhibition of viral replication pretreated with compound for 1 hr followed by viral infection for 2 hrs measured after 24 hrs post infection in presence of wallichins D by qRt-PCR analysis; type: functional, organism-based; settings: Severe acute respiratory syndrome coronavirus 2, Calu-3
SARS-CoV-2 [19] = test: (§2) Antiviral activity against SARS-Cov-2 infected in african green monkey Vero E6 cells assessed as inhibition of viral replication at 10 uM pretreated with compound for 1 hr followed by viral infection for 2 hrs measured after 24 hrs post infection by qRt-PCR analysis relative to control; type: functional; settings: Severe acute respiratory syndrome coronavirus 2, Vero C1008, time 27 hrs
[20] = target: T1, Replicase polyprotein 1ab; test: Inhibition of SARS-CoV-2 3CL protease using MCA-AVLQSGFR-Lys(Dnp)-Lys-NH2 as flurogenic substrate pre-incubated with compound for 10 mins followed by substrate addition measured after 10 mins in presence of wallichins C by FRET assay
SARS-CoV-2 [21] = test: Antiviral activity against SARS-Cov-2 infected in african green monkey Vero E6 cells assessed as inhibition of viral replication pretreated with compound for 1 hr followed by viral infection for 2 hrs measured after 24 hrs post infection in presence of wallichins C by qRt-PCR analysis; type: functional, organism-based; settings: Severe acute respiratory syndrome coronavirus 2, Vero C1008
SARS-CoV-2 [22] = test: as §2, with “post infection in presence of wallichins C by qRt-PCR” for “post infection by qRt-PCR”; type: functional; settings: Severe acute respiratory syndrome coronavirus 2, Vero C1008, time 27 hrs
Spike glycoprotein [23] = target: T2, Spike glycoprotein; test: Binding affinity to SARS-CoV-2 Spike glycoprotein receptor-binding domain at 1.875 to 50 uM in presence of wallichins C by SPR assay
[24] = Cytotoxicity against African green monkey Vero E6 cells in presence of wallichins C by CCK-8 assay; type: toxicity, cell-based, Vero C1008; settings: chlorocebus sabaeus
SARS-CoV-2 [25] = test: Antiviral activity against SARS-Cov-2 infected in human Calu-3 cells assessed as inhibition of viral replication pretreated with compound for 1 hr followed by viral infection for 2 hrs measured after 24 hrs post infection in presence of wallichins C by qRt-PCR analysis; type: functional, organism-based; settings: Severe acute respiratory syndrome coronavirus 2, Calu-3
[26] = target: T1, Replicase polyprotein 1ab; test: Binding affinity to SARS-CoV-2 3CL protease at 1.875 to 50 uM in presence of wallichins C by SPR assay
[27] = Cytotoxicity against human Calu-3 cells in presence of wallichins C by CCK-8 assay; type: toxicity, cell-based
[28] = Selectivity index, ratio of CC50 for African green monkey Vero cells in presence of […] to EC50 for SARS-Cov-2 infected in african green monkey Vero E6 cells assessed as inhibition of viral replication in presence of wallichins C; type: toxicity, Vero C1008; settings: read-out: Selectivity Index

Structure (SMILES): C=C1CC[C@H]2[C@@](C)(CCC[C@]2(C)C(=O)O)[C@@H]1C/C=C(\C)[C@@H]1CCc2c(O)c(CC3C(=O)C(C(C)=O)=C(O)C(C)(C)C3O)c(O)c(C(=O)CCC)c2O1 (some centres not stated)
- CC50 [1]: > 140 µM
- selectivity ratio [2]: > 35
- selectivity ratio [3]: > 27
- IC50 [4]: 7.5 µM
- EC50 (SARS-CoV-2 [5]): 6.8 µM
- inhibition at 10 µM (SARS-CoV-2 [6]): 87.7%
- CC50 [7]: > 140 µM
- CC50 [8]: 72.4 µM
- Kd (Spike glycoprotein [9]): 64.7 µM
- EC50 (SARS-CoV-2 [10]): 20.2 µM
- CC50 [11]: 98.6 µM
- Kd (Spike glycoprotein [12]): 91.7 µM
- Kd [13]: 16.6 µM
- IC50 [14]: 5.6 µM
- inhibition in vivo at 100 µM (SARS-CoV-2 [15]): < 50%
- Kd [16]: 12 µM
- EC50 (SARS-CoV-2 [17]): 4.5 µM
- EC50 (SARS-CoV-2 [18]): 24.8 µM

Structure (SMILES): C=C1CC[C@H]2[C@@](C)(CCC[C@]2(C)C(=O)O)[C@@H]1C/C=C(\C)[C@H]1CCC2=C(O1)C(C)(C)C(O)=C(C(C)=O)C2=O
- inhibition at 10 µM (SARS-CoV-2 [19]): 51.7%

Structure (SMILES): C=C1CC[C@H]2[C@@](C)(CCC[C@]2(C)C(=O)O)[C@@H]1C/C=C(\C)[C@H]1CCc2c(O)c(CC3C(=O)C(C(C)=O)=C(O)C(C)(C)C3O)c(O)c(C(=O)CCC)c2O1 (some centres not stated)
- CC50 [1]: > 140 µM
- IC50 [20]: 5.6 µM
- EC50 (SARS-CoV-2 [21]): 6.8 µM
- selectivity ratio [2]: > 11
- IC50 [4]: 8.1 µM
- inhibition at 10 µM (SARS-CoV-2 [22]): 87.7%
- Kd (Spike glycoprotein [23]): 64.7 µM
- EC50 (SARS-CoV-2 [10]): 30 µM
- CC50 [11]: 64.3 µM
- Kd (Spike glycoprotein [12]): 67.9 µM
- CC50 [24]: > 140 µM
- EC50 (SARS-CoV-2 [25]): 24.8 µM
- Kd [13]: 14.3 µM
- Kd [26]: 12 µM
- CC50 [27]: 72.4 µM
- inhibition in vivo at 100 µM (SARS-CoV-2 [15]): < 50%
- EC50 (SARS-CoV-2 [17]): 12.1 µM
- selectivity ratio [28]: > 27
